Where a name gives a salt, the structure may show the parent alone.
The compounds below were run on MTT (mouse pheochromocytoma) (assay: IC50 of cell viability (ATP content)). Details: (24 or 48 h).
Summary of the method: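 MTT mouse pheochromocytoma cells in white 1536-well plates were treated for 24 or 48 hrs with library compounds at 8 final concentrations from 0.5 nM to 46 µM. ATP content was measured with CellTiter-Glo luminescence, using positive-control wells as 100% and DMSO wells as 0%. IC50 came from a four-parameter logistic fit.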

Compound | IC50 of cell viability [µM]
CC(C)OC(=O)c1cc(C(=O)OC(C)C)cc([N+](=O)[O-])c1 [Nitrothal-isopropyl] | > 46
CC[N+](C)(C)c1cccc(O)c1 [Edrophonium chloride] | > 46
Cc1cc(O)cc2c1O[C@](C)(CCC[C@H](C)CCC[C@H](C)CCCC(C)C)CC2 [DELTA-TOCOPHEROL, D-] | > 46
COC(=O)C1=C(C)NC(C)=C(C(=O)OC(C)(C)CN(C)CCC(c2ccccc2)c2ccccc2)C1c1cccc([N+](=O)[O-])c1 (stereo not drawn) [LERCANIDIPINE HYDROCHLORIDE] | > 46
COc1cc2c(cc1OC)[C@@H](Cc1cc(OC)c(OC)c(OC)c1)[N@+](C)(CCCOC(=O)CC/C=C/CCC(=O)OCCC[N@+]1(C)CCc3cc(OC)c(OC)cc3[C@H]1Cc1cc(OC)c(OC)c(OC)c1)CC2 [Mivacurium] | > 46
CCC(=O)O[C@]1(C(=O)CCl)[C@@H](C)CC2C3C[C@H](F)C4=CC(=O)C=CC4(C)[C@@]3(F)C(O)CC21C (stereo partly drawn) [HALOBETASOL PROPIONATE] | > 46
CC(C)=CCC/C(C)=C/CO [GERANIOL] | > 46
NCCNCCN [Diethylenetriamine] | > 46
CO[C@@H]1[C@@H](OC2OC(C)C(OC3CC(C)(O)C(OC(=O)CC(C)C)C(C)O3)C(N(C)C)C2O)[C@@H](CC=O)C[C@@H](C)C(=O)C=CC2O[C@H]2C[C@@H](C)OC(=O)C[C@H]1OC(C)=O (stereo partly drawn) [CARBOMYCIN] | > 46
C[C@]12N[C@H](Cc3ccccc31)c1ccccc12 [(+)-MK 801] | > 46
Oc1noc2c1CCNC2 [4,5,6,7-TETRAHYDROISOXAZOLO[5,4-c]PYRIDIN-3-OL] | > 46
CN(C/C=C/C#CC(C)(C)C)Cc1cccc2ccccc12 [Terbinafine] | > 46
Cc1ccc(O)cc1.Cc1cccc(O)c1.Cc1ccccc1O [m-Cresol and o-cresol and p-cresol mixture] | > 46
C[N+]1(C)[C@@H]2CC(OC(=O)C(O)(c3cccs3)c3cccs3)C[C@H]1[C@@H]1O[C@@H]12 (stereo partly drawn) [TIOTROPIUM BROMIDE MONOHYDRATE] | > 46
ClC1=CC=C2C(CCC3=C(N=CC=C3)\C2=C4\CCNCC4)=C1 [Desloratadine] | > 46
O=C(O)c1ccccc1OP(=O)(O)O [FOSFOSAL] | > 46
CCN(CCCc1ccccc1)CCCc1ccccc1.O=C(O)CC(O)(CC(=O)O)C(=O)O [Alverine citrate salt] | > 46
CNc1c2c(nn1C)CCCC2 [TETRIDAMINUM] | > 46
C[C@H](CN1CCCC1)C(=O)c1ccc(C(F)(F)F)cc1 [LANPERISONE HYDROCHLORIDE] | > 46
CCCCCCC(=O)CCCCCC/C=C/C[C@@H](O)[C@H](O)[C@@](N)(CO)C(=O)O | > 46
O=S(=O)(O)NC1CCCCC1 [Cyclamic acid] | > 46
CCC(C)C1NC(=O)C(CCNCS(=O)(=O)[O-])NC(=O)C(NC(=O)C(CCNCS(=O)(=O)[O-])NC(=O)C(NC(=O)C(CCNCS(=O)(=O)[O-])NC(=O)CCCCC(C)C)C(C)O)CCNC(=O)C(C(C)O)NC(=O)C(CCNCS(=O)(=O)[O-])NC(=O)C(CCNCS(=O)(=O)[O-])NC(=O)C(C(C)CC)NC1=O.[Na+].[Na+].[Na+].[Na+].[Na+] (stereo not drawn) [COLISTIMETHATE SODIUM] | > 46
O=C(OOC(=O)c1ccccc1)c1ccccc1 [Benzoyl peroxide] | > 46
